Test results: patent US10493131B2, “Materials and methods for modulating activity of bone marrow derived cells” (University of Florida Research Foundation, Incorporated, priority 2011, dated 2019)

Assays:
[1] = system: CD34+ BMDEC; experiment: SDF-1/Relaxin induced chemotaxis (Boyden chamber); type: cell-based, human; details: 10 μM L-NAME
Experimental: Isolation of CD34+ BMDEC. The study protocol was approved by the Institutional Review Board of the University of Florida, and written informed consent was obtained from each subject. Blood was collected from healthy controls by routine venipuncture into CPT™ Tubes with heparin (BD Biosciences, Franklin Lakes, N.J.), centrifuged at room temperature in a swinging bucket rotor for 20 minutes at 1800 RCF, the peripheral blood mononuclear cells (PBMCs) diluted with phosphate buffered saline supplemented with 2 mM EDTA (PBSE) and centrifuged for 10 minutes at 300 RCF. After washing the cell pellet, centrifugation was repeated. 3.3×10^7 PBMCs were resuspended in 100 μl of PBSE to which 33 μl of FcR blocking reagent (Miltenyi Biotec Inc., Auburn, Calif.) and 33 μl of magnetic microbeads conjugated with an anti-CD34 antibody was added. After incubation for 30 minutes at 4° C., the cells were diluted in 10× the volume of PBSE supplemented with 0.1% bovine serum albumin. The CD34+ BMDEC were positively selected using an automated magnetic selection autoMACS™ (Miltenyi Biotec Inc., Auburn, Calif.). […] After 4.5 hours at 5% CO2 at 37° C., the percentage of cells that migrated was determined by collecting the media in the lower chamber and determining the relative fluorescence using a Synergy™ HT (Bio-Tek Instruments, Inc., Winooski, Vt.) with an excitation of 485±20 and an emission of 528±20 nm. […]

[2] = system: CD34+ BMDEC; experiment: Detection of nitric oxide (NO) produced by cells (DAF-FM fluorescence); type: cell-based, human; details: pretreatment with MK2206 20 nM 30 minutes; 50 ng/ml rhRLX
Experimental: Isolation of CD34+ BMDEC. The study protocol was approved by the Institutional Review Board of the University of Florida, and written informed consent was obtained from each subject. Blood was collected from healthy controls by routine venipuncture into CPT™ Tubes with heparin (BD Biosciences, Franklin Lakes, N.J.), centrifuged at room temperature in a swinging bucket rotor for 20 minutes at 1800 RCF, the peripheral blood mononuclear cells (PBMCs) diluted with phosphate buffered saline supplemented with 2 mM EDTA (PBSE) and centrifuged for 10 minutes at 300 RCF. After washing the cell pellet, centrifugation was repeated. […]
Detection of Nitric Oxide (NO) produced by cells. […] Bioavailable NO was determined as previously described (Shah, R., Beem, E., Sautina, L., Zharikov, S. I., and Segal, M. S. 2007. Mitomycin- and calcineurin-associated HUS, endothelial dysfunction and endothelial repair: a new paradigm for the puzzle? Nephrol Dial Transplant 22:617-620). […] DAF-FM fluorescence increases by about 160-fold when it reacts with NO. Green fluorescence was measured using the inverted fluorescent Carl Zeiss Axiovert 200M microscope equipped with a CCD camera and Slidebook software (v.4.1; Intelligent Imaging Innovations, Inc. Denver, Colo.). Fluorescence intensity was measured in 20-30 cells per field in at least 6 fields per well. […]

| Compound | effect on basal level of migration [1] | effect on relaxin-stimulated chemotaxis ([1]; 50 ng/ml rhRLX) | effect on rhRLX stimulation of NO [2] |
| --- | --- | --- | --- |
| COC(=O)[C@@H](N)CCCNC(=N)N[N+](=O)[O-] [L-NAME, L—N^G-nitroarginine methy ester] | unaffected | blocked |  |
| NC1(c2ccc(-c3nc4ccn5c(=O)[nH]nc5c4cc3-c3ccccc3)cc2)CCC1 [MK2206] |  |  | prevented |
